In patent US11129820B2, “Ferroportin-inhibitor salts” (Vifor (International) AG, priority 2017, dated 2021):
In brackets after ≈: the same amount, converted by molar mass. Blank lines part the entries; values can stand above or below the compound they belong to.

Key:
[1] = tested on: beta2-microglobulin deficient (b2m−/−) mice; assay: Correction of hyperferremia in beta2-microglobulin deficient mice; type: in vivo, mouse; conditions: for Serum Iron Reduction (%): 60 mg/kg oral, 3 hours (##)
Description: Female and male homozygous b2m−/− mice are supplied from Jackson Laboratories (B6.129P2-B2mtm1Unc/J, Stock Number: 002087) at age of 6 to 7 weeks and fed standard diet (Harlan Provimi Kliba 3436) ad libitum. Age and gender matched WT C57BL/6 mice are supplied by Charles River. To study the acute effects of ferroportin (Fpn) inhibitors in iron overload b2m−/− mice are treated with compounds or the corresponding amount of vehicle at a volume of 10 ml/kg body weight. Fpn inhibitor compounds are formulated in 0.5% methylcellulose/water or 20% cremophor EL/water and dosed p.o. in mice at 50 mg/kg body weight. WT controls received only vehicle. Three hours later, mice are pre-terminally anesthetized in isoflurane chambers and blood is collected by retro-orbital bleeding. Mice are sacrificed by cervical dislocation and spleens, livers and duodena are harvested and used for biomarker analysis. All experiments are performed in compliance with license approved by the responsible veterinarian authorities. Serum is isolated by centrifugation of blood into gel-containing microtainers (BD Biosciences) and serum iron is determined by the MULTIGENT Iron assay (Abbott Diagnostics, Cat. 6K95). Four to nine mice per group are used and one-way ANOVA with Bonferroni's multiple comparison test is applied to analyze the statistical differences between the experimental groups.
Blood is collected 1 (#) or 3 (##) hours after oral administration of the indicated doses of Fpn inhibitors to beta2-microglobulin deficient mice and serum iron concentrations are measured. Relative reduction (%) of serum iron levels are shown, which were calculated by subtracting the average of serum iron values of animals dosed with the Fpn inhibitor from that of vehicle-treated animals. The difference in average serum iron values between vehicle and compound treated groups was then divided by the average of serum iron of the vehicle control group and listed as percentage. Values are listed separately for female (♀) and male (♂) animals, because a marked sex-dependent difference in efficacy was noted. Statistically significant (2-way ANOVA with Bonferroni post test) differences observed between compound-treated and vehicle-treated groups are indicated (*** p<0.001; ** p<0.01, p<0.05).

[2] = biological target: T1, ferroportin (Fpn) (Mus musculus, UniProt Q9JHI9); assay: Ferroportin Ubiquitination and Degradation (J774, immunoprecipitation, Western blot); type: cell-based; parameters: key: +: comparable to hepcidin; −: no effect; +/−: intermediate effect; conditions: J774 cells, ca. 10-fold IC50 concentration, visual inspection of Western blots
T1 construct: endogenous in cells; host or cells: J774 mouse macrophage cell line (DSMZ, Cat. ACC170), induced with 200 uM Fe(III)-NTA
T1 sequence (Q9JHI9 1-570): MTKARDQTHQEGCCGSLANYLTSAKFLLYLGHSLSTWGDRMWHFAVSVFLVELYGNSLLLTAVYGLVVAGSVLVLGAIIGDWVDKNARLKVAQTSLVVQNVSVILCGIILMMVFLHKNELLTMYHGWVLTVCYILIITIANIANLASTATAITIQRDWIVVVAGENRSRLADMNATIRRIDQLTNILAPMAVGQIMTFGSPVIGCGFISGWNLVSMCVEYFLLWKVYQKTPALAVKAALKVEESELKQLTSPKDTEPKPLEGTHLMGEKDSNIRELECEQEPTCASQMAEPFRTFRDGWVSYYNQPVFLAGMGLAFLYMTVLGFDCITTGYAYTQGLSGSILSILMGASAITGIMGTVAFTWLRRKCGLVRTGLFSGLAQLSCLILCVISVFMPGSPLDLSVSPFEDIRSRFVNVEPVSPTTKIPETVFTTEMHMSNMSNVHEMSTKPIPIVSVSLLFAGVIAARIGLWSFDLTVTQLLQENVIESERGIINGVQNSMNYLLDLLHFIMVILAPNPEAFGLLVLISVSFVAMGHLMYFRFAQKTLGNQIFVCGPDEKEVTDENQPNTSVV
Description: Exposure of cells expressing ferroportin (Fpn) to hepcidin is known to trigger ubiquitination and subsequent internalization and degradation of Fpn (Qiao, 2012). The potential of Fpn inhibitors to induce Fpn ubiquitination and degradation is investigated with an immunoprecipitation assay using the J774 mouse macrophage cell line which expresses Fpn upon treatment with iron.
Cells are incubated with synthetic human hepcidin (Bachem, Cat. H-5926) or Fpn inhibitor compounds for 10 min or 120 min. Cells are washed and lysed with ice-cold lysis buffer (Pierce, Life Technoligies, Cat. 87787) including 1×HALT protease inhibitor cocktail (Life technologies, Cat. 78429) and 10 mM iodoacetamide (Sigma, Cat. 16125) to stabilize ubiquitinated proteins. Immunoprecipitation is done using the Pierce Classic IP Kit (Life Technologies, Cat. 26146) following the manufacturer's protocol. Briefly, 2 mg protein in 1.25 ml IP lysis buffer is incubated by mixing for 1 h at 4° C. with control agarose beads to pre-clear the lysate and reduce nonspecific signal. Unbound lysate is then incubated overnight with 12 μg per reaction of the affinity purified anti-Fpn antibody F308 that was raised against a GST fusion protein of mouse Fpn amino acids 224-308. Immune complexes are captured by pipetting 14 μl settled Pierce Protein A/G Plus Agarose beads (Life Technologies, Cat. 20423) per reaction and the slurry is incubated for 1.5 h at 4° C. with gentle end-over-end mixing. The beads are washed and immune complexes are eluted directly with 75 μl SDS NuPAGE LDS sample buffer (Life Technologies, Cat. NP0007) containing DTT (Life Technologies, Cat. NP0009).
After immunoprecipitation samples are analyzed by Western blotting using a rabbit anti-mouse MTP1 antiserum (Alpha Diagnostic International, Cat. MTP11-A) and a mouse anti-mono- and polyubiquitinylated conjugates monoclonal antibody (Enzo Lifesciences, Cat. BML-PW8810) for detection of ferroportin and ubiquitin, respectively. Mouse monoclonal anti-rabbit IgG light chain (Abcam, Cat. ab99697) and anti-mouse IgG H&L (Abcam, Cat. ab6789) HRP conjugates are used as secondary antibodies.

[3] = tested on: Hbb th3/+ mice; assay: Mouse model of β-thalassemia intermedia (Hbb th3/+ mice); type: in vivo; conditions: for Decrease in RDW by 20/60 mg/kg compound / Decrease in serum iron by 20/60 mg/kg compound: % change to vehicle; for Correction of anemia at day 20-48 by 20/60 mg/kg: hemoglobin difference to vehicle; for Decrease in serum iron by 20/60 mg/kg compound: dosed for 3 h
Description: The efficacy of Fpn inhibitors is investigated using a mouse model of transfusion-independent β-thalassemia. Mice with heterozygous deletion of β 1 and β 2 globin genes (called Hbb th3/+ mice) develop transfusion-independent anemia, ineffective erythropoiesis, splenomegaly and secondary iron overload in spleen, liver and kidneys. […] Hbb th3/+ mice are dosed twice daily with either compound at 20 or 60 mg/kg or with methylcellulose (10 ml/kg, Sigma, Cat. 274429) as a vehicle. Between both doses mice have access to drinking water supplemented with 1 mM ^58Fe(II)-sulfate (Vifor Pharma, Batch No. ROR 3096) and 10 mM ascorbic acid (Sigma, Cat. 795437) for 6 h. The concentration of ^58Fe(II)-Sulfate supplied in the drinking water is adjusted to substitute for intake of standard rodent diet with iron content of 250 ppm. Water without ^58Fe(II)-Sulfate and ascorbic acid is provided during the remaining 18 h. Dosing of Fpn inhibitors or vehicle followed by exposure to iron-containing water is repeated for 20 to 46 days in individual experiments.
Additional hematologic parameters are measured in terminal blood using automated blood cell analyzer.
The inefficient erythropoiesis of Hbb th3/+ mice causes excessive proliferation of erythroid precursors in spleen, leading to splenomegaly.
Elevated erythropoietin levels in Hbb th3/+ mice induce overexpression of erythroferrone, an erythroid regulator hormone known to suppress hepcidin (Kautz L. et al, Nat. Genet., 2014). […] Erythroferrone is produced by erythrocyte precursors proliferating massively in spleens of Hbb th3/+ mice as a consequence of extramedullar erythropoiesis.
Increased iron demand due to inefficient erythropoiesis and chronically low hepcidin levels in patients with thalassemia causes organ iron loading and associated morbidities, such as hepatocellular carcinoma and heart failure (Rivella S. Haematologica, 2015). Hbb th3/+ mice absorb excessive amounts of iron as a consequence of inadequately low hepcidin levels relative to the high iron content in liver, spleen and kidney and increased ferroportin expression in duodenum (Gardenghi S., Blood, 2007).
Additionally, reactive oxygen species (ROS) are detected in bone marrow cells using a fluorescent indicator, CM-H2DCFDA (Thermo Fisher Scientific, Cat. C6827).
Data are expressed as difference to the vehicle control group for hemoglobin and as % change to the vehicle control group for all other parameter shown

[4] = Approximate solubility of the starting compound in solvents and solvent mixtures; type: physicochemical; conditions: thermodynamic from solid
Description: Approximate solubilities were determined by incremental addition of solvent to about 10 mg the compound. […] Due to the experimental error inherent in this method, the solubility values are intended to be regarded as rough estimates and are to be used solely for the design of crystallization experiments.
Approximate solubilities were determined by incremental addition of solvent to about 10 mg of the compound. […] Due to the experimental error inherent in this method, the solubility values were regarded as rough estimates and were only used for the design of crystallization experiments.
The approximate solubility of SP236-FB-P1 was determined in a number of different solvents and solvent mixtures to help guide the salt/co-crystal experiments.

[5] = tested on: naïve WT C57BL/6 mice; assay: Hypoferremia in naïve mice; type: in vivo, mouse; conditions: injection in WT naïve mice, maximal effect at 3-4 hours post treatment
Description: Injection of synthetic hepcidin in wild-type (WT) naïve mice results in a reduction of serum iron levels (40-50% from the vehicle control) with a maximal effect at 3-4 hours post treatment (Rivera, 2005; FIG. 12A).
Female C57BL/6 mice (Janvier, France) at age of 9 weeks are fed a standard diet (Harlan Provimi Kliba 3436) and treated per os (p.o.) with compounds or the corresponding amount of vehicle at a volume of 10 ml/kg body weight. Fpn inhibitors are formulated in 0.5% methylcellulose/water or 20% cremophor EL/water and dosed p.o. in mice at 10, 30 or 100 mg/kg body weight. Three hours later, mice are pre-terminally anesthetized in isoflurane chambers and blood is collected by retro-orbital bleeding. Mice are sacrificed by cervical dislocation and spleens, livers and duodena were harvested and used for biomarker analysis. All experiments are conducted in compliance with the license approved by the responsible veterinarian authorities. Serum is isolated by centrifugation of blood into gel-containing microtainers and serum iron is determined by the MULTIGENT Iron assay (Abbott Diagnostics, 6K95). Eight mice per group are used and one-way ANOVA with Bonferroni's multiple comparison test is performed to analyze the statistical differences between the experimental groups.
Table 6 Efficacy of Fpn inhibitors tested in the naïve mouse hypoferremia model. Serum iron reduction induced by selected ferroportin inhibitors dosed p.o. in naïve WT C57BL/6 mice at 10, 30 and 100 mg/kg. Relative serum iron reduction at 3 h after dosing was calculated by subtracting the average of serum iron values of animals dosed with the Fpn inhibitor from that of vehicle-treated animals. The difference in average serum iron values between vehicle and compound treated groups was then divided by the average of serum iron of the vehicle control group and listed as percentage.

SMILES: O=C(NCc1ncccc1F)c1csc(CCNCCc2nc3ccccc3[nH]2)n1 [Example Compound No. 94]
Correction of elevated serum iron, in words ([1]; b2m−/− mice, 50 mg/kg p.o., 3 h): corrected the elevated serum iron to the levels observed in WT controls | Serum Iron Reduction (%) ([1]; female ♀): 47% | Serum Iron Reduction (%) ([1]; male ♂): 67%

Fpn Degradation (120 min.) [2]: + | Fpn Ubiquitination (10 min.) [2]: +/−
SMILES: O=C(NCc1ncccc1F)c1coc(CCNCc2nc3ccccc3[nH]2)n1 [Example Compound No. 126]

SMILES: O=C(NCc1ncccc1F)c1coc(CCNCCc2nc3ccccc3[nH]2)n1 [Example Compound No. 127]
Decrease in RDW by 20/60 mg/kg compound ([3]; 20 mg/kg twice daily for 20-46 days): 19% | Correction of anemia at day 20-48 by 20/60 mg/kg ([3]; 20 mg/kg twice daily): 12 g/L | Decrease in serum iron by 20/60 mg/kg compound ([3]; 20 mg/kg): 68% | Decrease in RDW by 20/60 mg/kg compound ([3]; 60 mg/kg twice daily for 20-46 days): 25% | Correction of anemia at day 20-48 by 20/60 mg/kg ([3]; 60 mg/kg twice daily): 20 g/L | Decrease in serum iron by 20/60 mg/kg compound ([3]; 60 mg/kg): 81%

SMILES: O=C(NCc1ncccc1F)c1coc(CCNCCc2nc3ccccc3[nH]2)n1 [SP236-FB-P1]
solubility ([4]; aqueous with cosolvent or surfactant or cyclodextrin, 2-propanol-water 1:3): 39 to 47 mg/mL (≈ 95.5 to 115 mM) | solubility ([4]; aqueous with cosolvent or surfactant or cyclodextrin, Methanol-water 1:1): > 100 mg/mL | solubility ([4]; organic solvent or mixture, 2-Propanol): 80 to 120 mg/mL (≈ 196 to 294 mM) | solubility ([4]; organic solvent or mixture, Acetonitrile): > 200 mg/mL | solubility ([4]; organic solvent or mixture, DMSO): > 100 mg/mL | solubility ([4]; organic solvent or mixture, Dioxane): > 100 mg/mL | solubility ([4]; organic solvent or mixture, Ethanol): > 100 mg/mL | solubility ([4]; organic solvent or mixture, Ethyl acetate): > 100 mg/mL | solubility ([4]; organic solvent or mixture, Ethyl acetate-cyclohexane 3:1): 5 to 7 mg/mL (≈ 12.2 to 17.1 mM) | solubility ([4]; organic solvent or mixture, Heptane): < 1 mg/mL | solubility ([4]; organic solvent or mixture, Methanol): > 200 mg/mL | solubility ([4]; organic solvent or mixture, THF): > 200 mg/mL | solubility ([4]; organic solvent or mixture, THF-heptane 3:1): > 200 mg/mL | solubility ([4]; Water): ~15 mg/mL (≈ 36.7 mM)

Fpn Degradation (120 min.) [2]: + | Fpn Ubiquitination (10 min.) [2]: +
SMILES: CC[C@H](C)[C@@H]1NC(=O)[C@@H](NC(=O)[C@@H](NC(=O)[C@@H]2CCCN2C(=O)[C@H](Cc2ccccc2)NC(=O)[C@H](Cc2c[nH]cn2)NC(=O)[C@@H](NC(=O)[C@@H](N)CC(=O)O)[C@@H](C)O)[C@@H](C)CC)CSSC[C@@H](C(=O)N[C@@H](CCCCN)C(=O)N[C@H](C(=O)O)[C@@H](C)O)NC(=O)[C@@H]2CSSC[C@@H]3NC(=O)[C@@H]4CSSC[C@H](NC(=O)[C@H](Cc5ccccc5)NC1=O)C(=O)N[C@@H](CSSC[C@H](NC(=O)[C@H](CCCCN)NC(=O)[C@H](CO)NC(=O)[C@H](CCCNC(=N)N)NC(=O)[C@H](Cc1c[nH]cn1)NC3=O)C(=O)NCC(=O)N[C@@H](CCSC)C(=O)N2)C(=O)NCC(=O)N4 [hepcidin, reference compound]
Reduction of serum iron levels from the vehicle control [5]: 40-50%
